Assay results as given in ChEMBL document CHEMBL1201862, “PubChem BioAssay data set” (2004).
Calls of active or inactive are those of the source.

Experiments:
Cytochrome P450 3A4 = Cytochrome P450 3A4 (Homo sapiens, UniProt P08684);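 also: CYP3A4 tested as one member of a cytochrome P450 panel screen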
Cytochrome P450 2D6 = Cytochrome P450 2D6 (Homo sapiens, UniProt P10635);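 also: CYP2D6 member of a cytochrome P450 panel assay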
Cytochrome P450 2C19 = Cytochrome P450 2C19 (Homo sapiens, UniProt P33261); assay: Cytochrome panel assay with activity outcomes. Panel member name: p450-cyp2c19 Compounds with AC50 equal or less than 10 uM are considered active; format: functional; settings: read-out: AC50
Sequence of Cytochrome P450 2C19 (P33261 whole entry): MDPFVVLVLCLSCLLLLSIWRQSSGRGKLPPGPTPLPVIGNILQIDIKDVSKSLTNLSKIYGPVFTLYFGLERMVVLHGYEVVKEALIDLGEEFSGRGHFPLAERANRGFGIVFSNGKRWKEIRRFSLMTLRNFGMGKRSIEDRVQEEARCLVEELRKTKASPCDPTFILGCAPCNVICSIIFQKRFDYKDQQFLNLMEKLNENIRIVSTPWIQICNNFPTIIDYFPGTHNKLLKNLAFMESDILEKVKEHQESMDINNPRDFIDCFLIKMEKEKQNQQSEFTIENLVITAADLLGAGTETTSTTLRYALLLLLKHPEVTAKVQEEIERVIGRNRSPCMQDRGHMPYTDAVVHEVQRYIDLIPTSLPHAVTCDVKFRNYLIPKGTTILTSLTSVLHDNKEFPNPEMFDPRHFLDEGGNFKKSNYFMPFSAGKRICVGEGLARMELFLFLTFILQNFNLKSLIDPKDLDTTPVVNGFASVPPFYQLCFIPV

[1] = biological target: T1, Serine/threonine-protein phosphatase (Candida dubliniensis (strain CD36 / CBS 7987 / NCPF 3949 / NRRLY-17841) (Yeast), UniProt B9W6M3); assay: Fluorescence Cell-Based Secondary Assay to Identify Inhibitors of Calcineurin. [Related pubchem assays (depositor defined):AID1979, AID2007]; format: functional
T1 sequence (B9W6M3 whole entry): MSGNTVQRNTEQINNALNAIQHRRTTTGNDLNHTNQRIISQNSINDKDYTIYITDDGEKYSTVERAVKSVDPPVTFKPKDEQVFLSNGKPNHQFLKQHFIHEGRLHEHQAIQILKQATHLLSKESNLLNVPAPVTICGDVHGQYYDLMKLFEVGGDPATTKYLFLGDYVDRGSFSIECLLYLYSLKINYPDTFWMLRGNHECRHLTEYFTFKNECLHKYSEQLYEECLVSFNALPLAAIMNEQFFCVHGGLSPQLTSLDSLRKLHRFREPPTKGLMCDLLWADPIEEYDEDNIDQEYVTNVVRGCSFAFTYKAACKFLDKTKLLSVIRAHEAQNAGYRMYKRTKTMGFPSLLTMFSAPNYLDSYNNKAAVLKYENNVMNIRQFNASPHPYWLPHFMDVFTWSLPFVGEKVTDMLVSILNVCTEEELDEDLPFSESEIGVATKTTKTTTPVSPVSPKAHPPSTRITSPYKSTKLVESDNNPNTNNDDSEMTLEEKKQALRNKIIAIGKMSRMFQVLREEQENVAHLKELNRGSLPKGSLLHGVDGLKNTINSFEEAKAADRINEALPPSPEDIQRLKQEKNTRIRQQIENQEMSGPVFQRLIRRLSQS

CAAX prenyl protease 2 [2] = biological target: T2, CAAX prenyl protease 2 (Homo sapiens, UniProt Q9Y256); assay: human Rce1 protease inhibitors, dose response, biochemical, yeast membranes, quenched-peptide fluorescence, cherry-pick (AID 588849)
T2 sequence (Q9Y256 whole entry): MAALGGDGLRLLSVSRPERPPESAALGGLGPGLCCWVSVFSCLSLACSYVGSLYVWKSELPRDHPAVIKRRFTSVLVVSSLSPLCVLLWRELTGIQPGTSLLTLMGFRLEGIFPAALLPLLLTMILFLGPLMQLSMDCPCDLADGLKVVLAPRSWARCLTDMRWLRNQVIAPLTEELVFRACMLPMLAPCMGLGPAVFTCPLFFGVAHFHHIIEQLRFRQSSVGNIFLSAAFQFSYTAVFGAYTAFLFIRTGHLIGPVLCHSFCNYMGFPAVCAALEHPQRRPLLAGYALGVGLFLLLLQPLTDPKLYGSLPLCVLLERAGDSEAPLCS

Protein skinhead-1 = biological target: T3, Protein skinhead-1 (Caenorhabditis elegans, UniProt P34707); format: functional
T3 sequence (P34707 whole entry): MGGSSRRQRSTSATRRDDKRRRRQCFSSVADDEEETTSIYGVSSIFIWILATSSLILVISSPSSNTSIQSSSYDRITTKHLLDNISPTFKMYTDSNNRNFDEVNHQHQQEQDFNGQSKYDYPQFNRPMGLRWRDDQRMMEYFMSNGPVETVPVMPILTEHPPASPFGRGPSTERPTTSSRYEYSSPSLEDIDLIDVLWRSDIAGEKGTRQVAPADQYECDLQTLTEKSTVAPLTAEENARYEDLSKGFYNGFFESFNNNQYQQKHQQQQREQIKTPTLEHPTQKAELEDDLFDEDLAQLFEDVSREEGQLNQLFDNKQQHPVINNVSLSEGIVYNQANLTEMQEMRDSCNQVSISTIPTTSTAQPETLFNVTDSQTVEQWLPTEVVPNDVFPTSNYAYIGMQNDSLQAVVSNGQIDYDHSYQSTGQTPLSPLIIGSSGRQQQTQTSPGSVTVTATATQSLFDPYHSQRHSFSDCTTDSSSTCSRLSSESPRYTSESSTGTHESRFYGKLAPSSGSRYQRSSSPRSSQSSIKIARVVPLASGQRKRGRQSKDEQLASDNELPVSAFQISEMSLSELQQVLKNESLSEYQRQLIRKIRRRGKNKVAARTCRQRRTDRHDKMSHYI

[3] = NIH-3T3 fibroblast cytotoxicity, dose response, cytotoxicity control, cell-based, fluorescence, Alamar Blue, secondary assay (AID 2327); format: functional;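 also: NIH-3T3 mouse fibroblasts cultured with fluconazole at 8 µg/mL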
[4] = biological target: ATP-dependent molecular chaperone HSP82 (Candida albicans (strain WO-1) (Yeast), UniProt C4YTQ8); assay: loss of DOC-induced GRE-beta-galactosidase reporter signal, dose response, Hsp90 inhibitor project, S. cerevisiae, luminescence (AID 2400); format: functional, cell-based;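 also: beta-galactosidase luminescence from glucocorticoid response element reporter as proxy for Hsp90 function; inhibitor potency where signal loss means Hsp90 inhibition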
Sequence of ATP-dependent molecular chaperone HSP82 (C4YTQ8 whole entry): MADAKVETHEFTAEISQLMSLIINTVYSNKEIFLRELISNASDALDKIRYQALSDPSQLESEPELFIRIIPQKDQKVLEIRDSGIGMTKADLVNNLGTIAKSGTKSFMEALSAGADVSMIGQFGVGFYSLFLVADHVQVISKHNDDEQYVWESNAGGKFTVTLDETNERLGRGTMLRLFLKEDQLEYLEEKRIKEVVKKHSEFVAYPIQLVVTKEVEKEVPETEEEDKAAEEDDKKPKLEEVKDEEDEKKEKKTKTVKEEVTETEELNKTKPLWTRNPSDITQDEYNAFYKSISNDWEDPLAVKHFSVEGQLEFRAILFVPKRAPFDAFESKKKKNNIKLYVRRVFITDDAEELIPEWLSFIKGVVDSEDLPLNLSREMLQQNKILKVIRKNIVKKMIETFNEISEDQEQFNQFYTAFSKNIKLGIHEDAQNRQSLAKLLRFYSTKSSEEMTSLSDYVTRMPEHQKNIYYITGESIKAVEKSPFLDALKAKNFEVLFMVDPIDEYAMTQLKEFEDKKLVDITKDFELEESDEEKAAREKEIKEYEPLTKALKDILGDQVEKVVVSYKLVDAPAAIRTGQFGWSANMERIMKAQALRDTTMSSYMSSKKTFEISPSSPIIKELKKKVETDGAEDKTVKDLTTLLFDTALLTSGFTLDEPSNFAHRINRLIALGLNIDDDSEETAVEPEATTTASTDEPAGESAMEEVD

[5] = biological target: T1, Serine/threonine-protein phosphatase; assay: calcineurin pathway inhibitors in yeast reporter, dose response, S. cerevisiae, CDRE-lacZ, luminescence, secondary (AID 2388); format: functional, cell-based;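 also: yeast reporter cells carrying a calcineurin-responsive lacZ construct stimulated with calcium chloride; luminescent beta-galactosidase reporter signal in whole cells rather than isolated phosphatase activity; potency for inhibition where a drop in reporter signal means calcineurin blockade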
[6] = C. albicans growth with fluconazole, confirmation, fluorescence, retest (AID 2467); format: functional, cell-based
HEK293 [7] = assay: cells; format: functional, cell-based; settings: Homo sapiens
HEK293 [8] = assay: cells; format: functional, cell-based; settings: Homo sapiens; remark: listed apart in the source
HEK293 [9] = assay: NOD2 signaling inhibitors in MDP-stimulated cells, cell-based, uHTS, luminescence (AID 2001); format: functional; settings: Homo sapiens
HEK293 [10] = assay: NOD1 signaling inhibitors, primary screen, cell-based, luminescence, uHTS (AID 1578); format: functional; settings: Homo sapiens
[11] = test system: Streptococcus sp. 'group A'; assay: growth inhibition of control SK(-) GAS strain, dose response, counter-screen for streptokinase expression inhibitor project, luminescence, kanamycin, BacTiterGlo, confirmation (AID 1900); format: functional, organism-based
HEK293 [12] = assay: cells; format: functional, cell-based; settings: Homo sapiens; remark: listed apart in the source
Streptococcus = assay: Group A Streptococcus viability loss, dose response, counter-screen for streptokinase expression inhibitor project, luminescence, BacTiterGlo (AID 1915); format: functional, organism-based;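 also: potency for reduction of bacterial viability or growth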
[13] = biological target: Nucleotide-binding oligomerization domain-containing protein 2 (Homo sapiens, UniProt Q9HC29); assay: NOD2 signaling inhibitors, cell-based, luminescence, uHTS, HEK293 (AID 1566); format: functional
Sequence of Nucleotide-binding oligomerization domain-containing protein 2 (Q9HC29 whole entry, the tested form may be a part): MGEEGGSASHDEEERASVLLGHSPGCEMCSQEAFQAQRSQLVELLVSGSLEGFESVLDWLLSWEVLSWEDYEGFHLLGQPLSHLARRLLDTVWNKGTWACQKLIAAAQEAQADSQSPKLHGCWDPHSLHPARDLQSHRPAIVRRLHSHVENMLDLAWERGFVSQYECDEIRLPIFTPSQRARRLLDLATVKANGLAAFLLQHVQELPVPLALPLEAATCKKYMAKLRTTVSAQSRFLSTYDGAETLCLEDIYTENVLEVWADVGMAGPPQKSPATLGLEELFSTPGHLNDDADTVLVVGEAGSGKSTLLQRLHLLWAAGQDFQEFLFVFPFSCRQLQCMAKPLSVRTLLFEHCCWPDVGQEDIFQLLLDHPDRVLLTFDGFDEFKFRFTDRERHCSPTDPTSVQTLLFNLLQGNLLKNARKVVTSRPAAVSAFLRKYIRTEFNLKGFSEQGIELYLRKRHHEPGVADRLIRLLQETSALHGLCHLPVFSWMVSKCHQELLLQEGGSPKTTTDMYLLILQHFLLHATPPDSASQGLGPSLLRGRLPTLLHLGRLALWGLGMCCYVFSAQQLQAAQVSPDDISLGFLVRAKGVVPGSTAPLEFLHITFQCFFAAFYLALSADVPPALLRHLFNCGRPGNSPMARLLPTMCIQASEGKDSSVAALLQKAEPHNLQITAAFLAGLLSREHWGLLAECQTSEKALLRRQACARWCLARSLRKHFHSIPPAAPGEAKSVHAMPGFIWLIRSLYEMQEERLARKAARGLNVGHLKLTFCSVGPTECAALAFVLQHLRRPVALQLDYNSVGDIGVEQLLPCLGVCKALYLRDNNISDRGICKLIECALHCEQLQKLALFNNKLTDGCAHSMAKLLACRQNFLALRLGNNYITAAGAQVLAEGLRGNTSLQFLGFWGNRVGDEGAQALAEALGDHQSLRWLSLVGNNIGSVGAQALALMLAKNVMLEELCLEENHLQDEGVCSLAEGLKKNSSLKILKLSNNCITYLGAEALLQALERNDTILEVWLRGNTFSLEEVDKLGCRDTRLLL

Streptokinase A = biological target: T4, Streptokinase A (Streptococcus pyogenes serotype M1, UniProt P10520); assay: S. pyogenes streptokinase expression inhibitors, potency, dose response, plasminogen activation absorbance, OD405 (AID 1914); format: functional, Streptococcus pyogenes M1 GAS;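 also: secreted streptokinase activity via plasminogen activation per viability signal from cell pellet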
T4 sequence (P10520 whole entry): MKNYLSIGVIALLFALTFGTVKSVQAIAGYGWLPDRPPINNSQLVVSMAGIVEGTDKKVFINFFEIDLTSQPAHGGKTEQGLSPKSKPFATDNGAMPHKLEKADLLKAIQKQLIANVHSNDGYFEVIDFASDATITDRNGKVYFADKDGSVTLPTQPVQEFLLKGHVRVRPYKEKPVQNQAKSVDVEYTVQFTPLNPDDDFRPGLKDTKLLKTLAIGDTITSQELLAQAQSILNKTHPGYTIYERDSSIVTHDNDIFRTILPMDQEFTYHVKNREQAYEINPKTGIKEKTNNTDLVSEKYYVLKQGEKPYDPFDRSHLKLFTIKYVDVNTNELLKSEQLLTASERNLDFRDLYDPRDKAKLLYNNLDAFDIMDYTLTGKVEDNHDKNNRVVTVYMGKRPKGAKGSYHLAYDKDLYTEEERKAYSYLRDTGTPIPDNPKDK

CAAX prenyl protease 1 = CAAX prenyl protease 1 (Saccharomyces cerevisiae S288c, UniProt P47154); assay: Ste24 protease inhibitors, dose response, biochemical, S. cerevisiae, plate reader, cherry-pick (AID 488815)
Sequence of CAAX prenyl protease 1 (P47154 whole entry): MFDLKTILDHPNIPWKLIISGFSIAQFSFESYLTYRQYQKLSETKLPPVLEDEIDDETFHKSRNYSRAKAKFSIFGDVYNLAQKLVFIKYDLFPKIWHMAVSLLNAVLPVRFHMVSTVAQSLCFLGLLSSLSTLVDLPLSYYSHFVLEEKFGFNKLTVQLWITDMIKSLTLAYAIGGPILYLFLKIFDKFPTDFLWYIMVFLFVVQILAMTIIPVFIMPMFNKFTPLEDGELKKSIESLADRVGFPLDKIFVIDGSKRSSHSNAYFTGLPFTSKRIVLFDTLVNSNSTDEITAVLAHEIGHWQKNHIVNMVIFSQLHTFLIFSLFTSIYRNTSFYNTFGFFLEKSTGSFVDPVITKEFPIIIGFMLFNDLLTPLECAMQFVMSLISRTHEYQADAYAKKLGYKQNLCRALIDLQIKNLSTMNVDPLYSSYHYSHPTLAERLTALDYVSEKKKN

CAAX prenyl protease 2 [14] = biological target: T5, CAAX prenyl protease 2 (Saccharomyces cerevisiae S288c, UniProt Q03530); format: biochemical
T5 sequence (Q03530 whole entry): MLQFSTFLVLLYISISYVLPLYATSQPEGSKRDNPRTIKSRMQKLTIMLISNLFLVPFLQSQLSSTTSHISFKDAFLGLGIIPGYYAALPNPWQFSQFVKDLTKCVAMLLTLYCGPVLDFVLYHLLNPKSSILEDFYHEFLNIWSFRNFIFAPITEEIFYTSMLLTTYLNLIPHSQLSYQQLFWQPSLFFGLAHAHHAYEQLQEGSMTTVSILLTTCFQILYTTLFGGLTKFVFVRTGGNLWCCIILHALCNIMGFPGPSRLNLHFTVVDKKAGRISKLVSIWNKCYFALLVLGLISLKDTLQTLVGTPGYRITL

[15] = biological target: T6, Aryl hydrocarbon receptor (Homo sapiens, UniProt P35869); assay: Luminescence-based cell-based high throughput dose response assay for activators of the Aryl Hydrocarbon Receptor (AHR). [Related pubchem assays: 2796 (Primary screen (AHR activators in singlicate)), 2845 (Confirmation screen (AHR activators in triplicate)), 434939 (Counterscreen (PXR activators in triplicate)), 2804 (Summary (AHR activators))]; format: ADME
T6 sequence (P35869 whole entry): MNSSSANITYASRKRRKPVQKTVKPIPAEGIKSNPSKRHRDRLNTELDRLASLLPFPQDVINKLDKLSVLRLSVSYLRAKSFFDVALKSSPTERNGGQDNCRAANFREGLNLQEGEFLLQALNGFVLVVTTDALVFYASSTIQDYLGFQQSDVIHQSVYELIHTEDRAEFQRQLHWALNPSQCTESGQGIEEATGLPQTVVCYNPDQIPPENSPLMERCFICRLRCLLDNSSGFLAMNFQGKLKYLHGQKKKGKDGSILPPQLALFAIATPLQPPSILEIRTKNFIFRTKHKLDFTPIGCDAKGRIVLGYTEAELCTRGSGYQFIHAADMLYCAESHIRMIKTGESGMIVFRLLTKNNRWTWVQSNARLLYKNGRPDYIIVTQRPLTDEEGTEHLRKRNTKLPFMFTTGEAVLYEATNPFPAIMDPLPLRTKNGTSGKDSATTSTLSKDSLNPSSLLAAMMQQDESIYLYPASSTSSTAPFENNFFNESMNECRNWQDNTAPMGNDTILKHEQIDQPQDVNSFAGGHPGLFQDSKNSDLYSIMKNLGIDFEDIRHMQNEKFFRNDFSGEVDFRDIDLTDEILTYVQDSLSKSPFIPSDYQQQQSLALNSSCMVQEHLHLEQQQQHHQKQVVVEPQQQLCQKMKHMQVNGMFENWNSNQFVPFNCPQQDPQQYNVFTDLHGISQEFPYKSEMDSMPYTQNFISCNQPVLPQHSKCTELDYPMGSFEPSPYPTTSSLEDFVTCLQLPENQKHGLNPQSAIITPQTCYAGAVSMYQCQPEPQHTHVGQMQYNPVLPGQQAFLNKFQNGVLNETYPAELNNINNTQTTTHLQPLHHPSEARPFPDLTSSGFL

[16] = biological target: DNA repair and recombination protein RAD54-like (Homo sapiens, UniProt Q92698); assay: inhibitors of human RAD54 branch migration, confirmation, biochemical, fluorescence, cherry-picked samples, dose series (AID 651657); format: functional
Sequence of DNA repair and recombination protein RAD54-like (Q92698 whole entry): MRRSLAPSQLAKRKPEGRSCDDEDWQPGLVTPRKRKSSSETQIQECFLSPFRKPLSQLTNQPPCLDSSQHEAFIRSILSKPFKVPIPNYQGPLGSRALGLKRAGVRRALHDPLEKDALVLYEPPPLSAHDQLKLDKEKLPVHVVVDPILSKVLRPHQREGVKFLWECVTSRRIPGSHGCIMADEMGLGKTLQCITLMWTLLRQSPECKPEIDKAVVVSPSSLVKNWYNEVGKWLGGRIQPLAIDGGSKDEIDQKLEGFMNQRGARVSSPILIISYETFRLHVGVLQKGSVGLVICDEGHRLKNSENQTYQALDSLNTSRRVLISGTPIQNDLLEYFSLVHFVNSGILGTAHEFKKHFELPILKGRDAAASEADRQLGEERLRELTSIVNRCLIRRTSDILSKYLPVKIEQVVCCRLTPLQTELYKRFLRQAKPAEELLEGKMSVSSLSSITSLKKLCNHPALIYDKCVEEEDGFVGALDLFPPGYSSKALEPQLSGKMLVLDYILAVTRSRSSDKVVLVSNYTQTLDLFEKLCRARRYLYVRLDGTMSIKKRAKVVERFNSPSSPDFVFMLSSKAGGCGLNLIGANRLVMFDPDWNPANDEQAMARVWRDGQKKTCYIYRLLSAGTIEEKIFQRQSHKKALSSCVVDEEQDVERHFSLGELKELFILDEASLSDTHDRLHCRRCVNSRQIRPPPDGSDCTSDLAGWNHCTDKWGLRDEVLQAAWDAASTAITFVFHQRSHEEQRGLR

[17] = biological target: Phosphoethanolamine/phosphocholine phosphatase (Homo sapiens, UniProt Q8TCT1); assay: SAR assay for compounds that inhibit PHOSPHO1. [Related pubchem assays (depositor defined):AID1545, AID1565, AID1574]
Sequence of Phosphoethanolamine/phosphocholine phosphatase (Q8TCT1 whole entry): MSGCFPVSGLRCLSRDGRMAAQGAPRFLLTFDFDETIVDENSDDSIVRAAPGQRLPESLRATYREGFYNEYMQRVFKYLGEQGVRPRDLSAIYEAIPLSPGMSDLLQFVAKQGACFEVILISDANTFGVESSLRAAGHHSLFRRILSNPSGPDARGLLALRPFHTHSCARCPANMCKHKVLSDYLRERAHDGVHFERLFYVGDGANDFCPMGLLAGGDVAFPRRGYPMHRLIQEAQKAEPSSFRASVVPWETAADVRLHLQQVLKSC

Phosphomannomutase 2 = Phosphomannomutase 2 (Homo sapiens, UniProt O15305); assay: Counter screen SAR assay for PMM2 inhibitors via a fluorescence intensity assay. [Related pubchem assays (depositor defined):AID1545, AID1574]
Sequence of Phosphomannomutase 2 (O15305 whole entry): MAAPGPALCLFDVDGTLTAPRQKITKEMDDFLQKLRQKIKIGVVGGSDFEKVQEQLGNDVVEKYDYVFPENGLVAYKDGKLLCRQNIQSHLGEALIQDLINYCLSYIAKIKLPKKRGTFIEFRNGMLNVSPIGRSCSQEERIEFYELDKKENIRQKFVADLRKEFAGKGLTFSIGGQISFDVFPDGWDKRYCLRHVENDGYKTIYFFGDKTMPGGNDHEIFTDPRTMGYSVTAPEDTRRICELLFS

[18] = biological target: T7, Mannose-6-phosphate isomerase (Homo sapiens, UniProt P34949); assay: PMI enzyme inhibitors, confirmation, biochemical, fluorescence intensity (AID 1535)
T7 sequence (P34949 whole entry): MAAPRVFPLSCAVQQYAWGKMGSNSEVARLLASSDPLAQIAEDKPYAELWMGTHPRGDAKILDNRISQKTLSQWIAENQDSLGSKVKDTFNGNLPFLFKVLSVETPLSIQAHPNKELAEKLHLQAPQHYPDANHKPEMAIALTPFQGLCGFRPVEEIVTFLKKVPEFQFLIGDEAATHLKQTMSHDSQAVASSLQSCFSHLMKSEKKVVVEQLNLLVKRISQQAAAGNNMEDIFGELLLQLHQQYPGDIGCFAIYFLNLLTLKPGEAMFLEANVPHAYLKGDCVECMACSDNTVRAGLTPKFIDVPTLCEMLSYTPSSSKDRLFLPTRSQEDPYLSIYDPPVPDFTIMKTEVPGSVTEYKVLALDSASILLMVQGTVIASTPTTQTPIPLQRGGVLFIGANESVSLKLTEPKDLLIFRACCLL

[19] = growth induction of Burl-1 ts yeast mutant, dose response, counter-screen for SUMOylation pathway inhibitor project, whole organism, S. cerevisiae, luminescence (AID 463199); format: functional

Sequence of Cytochrome P450 2D6 (P10635 whole entry): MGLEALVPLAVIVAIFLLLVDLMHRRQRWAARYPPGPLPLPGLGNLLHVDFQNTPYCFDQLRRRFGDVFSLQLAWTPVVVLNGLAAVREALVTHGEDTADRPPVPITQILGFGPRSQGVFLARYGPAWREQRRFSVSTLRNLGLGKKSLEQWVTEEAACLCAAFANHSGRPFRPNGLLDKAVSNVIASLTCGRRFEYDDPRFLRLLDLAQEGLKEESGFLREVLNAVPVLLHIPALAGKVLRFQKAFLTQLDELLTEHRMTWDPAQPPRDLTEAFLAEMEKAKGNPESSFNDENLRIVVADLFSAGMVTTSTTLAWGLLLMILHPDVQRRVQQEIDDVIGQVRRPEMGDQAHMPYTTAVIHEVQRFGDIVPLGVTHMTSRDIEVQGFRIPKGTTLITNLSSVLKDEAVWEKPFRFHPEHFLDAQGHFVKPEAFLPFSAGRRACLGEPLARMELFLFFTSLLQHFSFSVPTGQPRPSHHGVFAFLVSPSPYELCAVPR
Sequence of Cytochrome P450 3A4 (P08684 whole entry): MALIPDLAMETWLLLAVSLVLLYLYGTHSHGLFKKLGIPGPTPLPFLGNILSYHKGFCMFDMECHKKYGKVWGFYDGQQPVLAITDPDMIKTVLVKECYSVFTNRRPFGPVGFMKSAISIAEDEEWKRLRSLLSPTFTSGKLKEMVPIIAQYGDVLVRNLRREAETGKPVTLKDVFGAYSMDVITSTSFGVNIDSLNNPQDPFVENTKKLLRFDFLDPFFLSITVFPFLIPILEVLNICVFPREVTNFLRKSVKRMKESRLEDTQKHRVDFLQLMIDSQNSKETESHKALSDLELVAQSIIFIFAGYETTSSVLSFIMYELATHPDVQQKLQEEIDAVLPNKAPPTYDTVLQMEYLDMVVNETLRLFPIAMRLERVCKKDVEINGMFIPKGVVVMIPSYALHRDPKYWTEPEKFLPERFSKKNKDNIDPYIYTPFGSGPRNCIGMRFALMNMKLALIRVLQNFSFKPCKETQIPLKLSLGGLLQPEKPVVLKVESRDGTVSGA

Compound: CCc1ccc(C(CC(=O)c2ccc(Cl)cc2)C(=O)O)cc1 (stereo not drawn)
- AC50 (Cytochrome P450 3A4): inconclusive
- AC50 (Cytochrome P450 2D6): inconclusive
- AC50 (Cytochrome P450 2C19): 0.00562 µM (inconclusive)

Compound: O=C(Nc1sc2c(c1C(=O)c1ccc(Cl)cc1)CCCC2)c1cccnc1
- EC50 [1]: 27.6 µM (inconclusive)
- AC50 (CAAX prenyl protease 2 [2]): 24.3 µM (active)
- IC50 (Protein skinhead-1): > 100 µM (inactive)
- EC50 [3]: > 160 µM (inactive)
- EC50 [4]: 28.2 µM (active)
- EC50 [5]: > 180 µM (inactive)
- EC50 [6]: 0.18 µM (active)

Compound: CCCCCCc1cc2cc(C(=O)OCC)c(=O)oc2cc1O
- IC50 (HEK293 [7]): 15.8 µM (active)
- IC50 (HEK293 [8]): 7.71 µM (active)
- IC50 (HEK293 [9]): 6.52 µM (inactive)
- EC50 (HEK293 [10]): 5.81 µM (active)
- EC50 [11]: 10.8 µM (active)
- IC50 (HEK293 [12]): > 20 µM (inactive)
- EC50 (Streptococcus): > 150 µM (not active)
- EC50 [13]: 12.6 µM (active)
- EC50 (Streptokinase A): 12.8 µM (active)

Compound: CN1CCN(CCCNC(=O)c2cc3c(-c4ccc(Cl)cc4)nn(C)c3s2)CC1
- AC50 (CAAX prenyl protease 1): 6.07 µM (active)
- AC50 (CAAX prenyl protease 2 [14]): 7.05 µM (active)
- EC50 [15]: 0.483 µM (active)
- AC50 [16]: 33.6 µM (active)
- AC50 (CAAX prenyl protease 2 [2]): 15.8 µM (active)

Compound: CCN(CC)CCOC(=O)c1ccc(-n2sc3ccccc3c2=O)cc1
- IC50 [17]: 0.755 µM (active)
- IC50 (Phosphomannomutase 2): 26.9 µM (active)
- IC50 [18]: 24.1 µM (active)

Compound: OCCc1c[nH]c2cc(F)ccc12
- AC50 [19]: 73.3 µM (active)
